Consider six compounds from ChEMBL document CHEMBL1201862, “PubChem BioAssay data set” (2004).

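Protocol summary: plate cells (96-well), add compound at 5 concentrations, incubate 48 h, interpolate endpoints linearly. GI50 = concentration required for 50% inhibition of growth.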 Activity calls are given as the source filed them. Cut-off read from the data, not from the text of the source: active = GI50 up to about 1.1 µM and inactive = higher.

Test systems include HCC 2998; Hs-578T; K562; OVCAR-8; SN12C; MCF7; UO-31; 786-0; HCT-116; NCI-H23; SF-539; U-251; MDA-N; MDA-MB-231; HCT-15; NCI-H522; PC-3; SK-MEL-5; HOP-92; COLO 205.
Common to all, as to test: NCI tumour cell line growth inhibition, 48 h

As to `Cc1ccc(S(=O)(=O)Oc2cc(S(=O)(=O)O)cc3cc(S(=O)(=O)O)cc(N)c23)cc1`, the GI50 in the assay with HCC 2998, with Hs-578T, with K562, in the assay on OVCAR-8, in the assay with SN12C and with MCF7 was > 100 µM (inactive) each time. Also, the GI50 is 41.1 µM (inactive) in the assay on UO-31; > 100 µM (inactive) in the assay on 786-0; > 100 µM (inactive) with HCT-116; > 100 µM (inactive) in the assay with NCI-H23; > 100 µM (inactive) with SF-539; > 100 µM (inactive) in the assay on U-251. For the same compound, the GI50 is > 100 µM (inactive) with MDA-N; > 100 µM (inactive) with MDA-MB-231; over 100 µM in the assay on HCT-15; > 100 µM (inactive) in the assay on NCI-H522; > 100 µM (inactive) in the assay with PC-3; > 100 µM (inactive) with SK-MEL-5. For the same compound, the GI50 in the assay on HOP-92 is 22 µM (inactive); in the assay with COLO 205, > 100 µM (inactive).
On to `O=C(ON=C1c2ccccc2C(Br)C(Br)c2ccccc21)c1ccccc1` (stereo not given), for which the GI50 in the assay with HCC 2998 was 21.8 µM (inactive); with Hs-578T, 21.5 µM (inactive); with K562, 2.95 µM (inactive); in the assay on OVCAR-8, 9.18 µM (inactive); with SN12C, 20.7 µM (inactive); in the assay with MCF7, 14.9 µM (inactive). Moreover, the GI50 in the assay on UO-31 is 3.79 µM (inactive); with 786-0, 9.62 µM (inactive); with HCT-116, 14.6 µM (inactive); in the assay with NCI-H23 it was 19.4 µM (inactive); with SF-539, 7.01 µM (inactive); in the assay with U-251, 17.7 µM (inactive). Moreover, the GI50 with MDA-N is 17.8 µM (inactive); in the assay on MDA-MB-231, 16.7 µM (inactive); in the assay on HCT-15 it was 17.6 µM; in the assay with NCI-H522, 1.69 µM (inactive); with PC-3, 19.8 µM (inactive); in the assay with SK-MEL-5, 17.1 µM (inactive). The GI50 with HOP-92 was 1.17 µM (inactive); in the assay with COLO 205, 15.8 µM (inactive).
In the case of `CN(C)Cc1cc(C(=O)/C=C/c2ccc(Cl)c(Cl)c2)cc(CN(C)C)c1O`, the GI50 in the assay on HCC 2998 is 3.4 µM (inactive); with Hs-578T, 3.04 µM (inactive); in the assay with K562 it was 1.31 µM (inactive); in the assay with OVCAR-8 it was 1.68 µM (inactive); in the assay on SN12C, 2.25 µM (inactive); in the assay on MCF7 it was 2.48 µM (inactive). Besides, the GI50 in the assay on UO-31 was 1.83 µM (inactive); in the assay with 786-0, 1.36 µM (inactive); with HCT-116, 2.77 µM (inactive); in the assay on NCI-H23, 5.69 µM (inactive); in the assay on SF-539 it was 2.77 µM (inactive); in the assay on U-251 it was 3.08 µM (inactive). In addition, the GI50 with MDA-N is 3.08 µM (inactive); in the assay with MDA-MB-231 it was 2.68 µM (inactive); in the assay with HCT-15, 2.84 µM; with NCI-H522, 1.56 µM (inactive); in the assay with PC-3 it was 1.96 µM (inactive); in the assay on SK-MEL-5, 1.6 µM (inactive). The GI50 in the assay on HOP-92 is 0.598 µM (active); with COLO 205, 1.29 µM (inactive).
`O=C(Cc1ccc(OCc2cccc(Cl)c2)cc1)NO`: the GI50 was 58.7 µM (inactive) with HCC 2998; 30 µM (inactive) with Hs-578T; 16.1 µM (inactive) in the assay on K562; 11.7 µM (inactive) in the assay on OVCAR-8; 27.6 µM (inactive) in the assay with SN12C; 37.8 µM (inactive) in the assay with MCF7. The GI50 in the assay with UO-31 is 12.8 µM (inactive); with 786-0 it was 14.7 µM (inactive); in the assay on HCT-116 it was 24.5 µM (inactive); in the assay on NCI-H23 it was 34 µM (inactive); in the assay with SF-539 it was 29.6 µM (inactive); with U-251, 28.9 µM (inactive). Besides, the GI50 in the assay with MDA-N was 58.9 µM (inactive); in the assay with MDA-MB-231 it was 41.8 µM (inactive); with HCT-15, 14.1 µM; in the assay on NCI-H522 it was 15.8 µM (inactive); in the assay with PC-3, 9.18 µM (inactive); in the assay with SK-MEL-5 it was 33.3 µM (inactive). Also, the GI50 in the assay with HOP-92 is 41 µM (inactive); with COLO 205 it was 25 µM (inactive).
Consider `Cc1cc(=O)[nH]c2cc(NC(=O)C(CCCNC(=N)N)NC(=O)OCc3ccccc3)ccc12` (stereo not given), for which the GI50 in the assay with HCC 2998, in the assay with Hs-578T, with K562, in the assay on OVCAR-8, in the assay on SN12C and in the assay on MCF7 was > 100 µM (inactive) in each case. Moreover, the GI50 with UO-31, in the assay on 786-0, in the assay on HCT-116, with NCI-H23, in the assay on SF-539 and in the assay on U-251 was > 100 µM (inactive) throughout. Further, the GI50 in the assay on MDA-N was > 100 µM (inactive); with MDA-MB-231 it was > 100 µM (inactive); in the assay with HCT-15, over 100 µM; in the assay on NCI-H522, > 100 µM (inactive); with PC-3, > 100 µM (inactive); with SK-MEL-5, > 100 µM (inactive). Further, the GI50 with HOP-92 is 78.5 µM (inactive); with COLO 205 it was > 100 µM (inactive).
For `CC(/C=N/N(C)C1=NCCCN1)=N/N(C)C1=NCCCN1`, the GI50 in the assay on HCC 2998, with Hs-578T, in the assay with K562, in the assay on OVCAR-8, in the assay on SN12C and with MCF7 was > 100 µM (inactive) each time. In addition, the GI50 with UO-31, in the assay on 786-0, in the assay with HCT-116, in the assay on NCI-H23, with SF-539 and with U-251 was > 100 µM (inactive) each time. Also, the GI50 in the assay on MDA-N is > 100 µM (inactive); in the assay with MDA-MB-231, > 100 µM (inactive); in the assay on HCT-15 it was over 100 µM; in the assay with NCI-H522, > 100 µM (inactive); in the assay on PC-3, > 100 µM (inactive); in the assay with SK-MEL-5, > 100 µM (inactive). The GI50 with HOP-92 and in the assay on COLO 205 was > 100 µM (inactive) in each case.
